Calls of active or inactive are those of the source. No cut-off for these calls is given here.
What was measured:
[1] = Activation of chymotrypsin-like activity of human 20S proteasome using suc-LLVY-AMC as substrate by fluorescence assay
[2] = Inhibition of PA28 activated chymotrypsin-like activity of human 20S proteasome using suc-LLVY-AMC as substrate by fluorescence assay
Homo sapiens [3] = species: Homo sapiens; assay: Activation of chymotrypsin-like activity of human 20S proteasome using suc-LLVY-AMC as substrate by fluorescence assay relative to control
[4] = Activation of caspase-like activity of human 20S proteasome using (Z)-LLE-bNA as substrate by fluorescence assay
Homo sapiens [5] = species: Homo sapiens; assay: Activation of chymotrypsin-like activity of human 20S proteasome using suc-LLVY-AMC as substrate at 18 uM by fluorescence assay
[6] = Activation of trypsin-like activity of human 20S proteasome using Bz-VGR-AMC as substrate by fluorescence assay
Homo sapiens [7] = species: Homo sapiens; assay: Activation of chymotrypsin-like activity of human 20S proteasome using suc-LLVY-AMC as substrate at 18 uM by fluorescence assay in presence of 1.1 to 30 ug/mL
Homo sapiens [8] = species: Homo sapiens; assay: Reversal of amyloid beta-induced inhibition of chymotrypsin-like activity of PA28-activated human 20S proteasome using suc-LLVY-AMC as substrate at 14 uM by fluorescence assay; parameters: scale not given: the % may be the effect or the level left
Homo sapiens [9] = species: Homo sapiens; assay: Reversal of amyloid beta-induced inhibition of chymotrypsin-like activity of PA28-activated human 20S proteasome using suc-LLVY-AMC as substrate by fluorescence assay

SMILES	EC50 [1]	IC50 ([2]; read-out: IC50) [µM]	IC50 [2]	EC50 ([1]; read-out: EC50) [µM]	further results
COC(=O)CC[C@@H](C)[C@H]1CC[C@H]2[C@@H]3CC[C@@H]4C[C@@H](OC(=O)CCCCCC(=O)O)CC[C@]4(C)[C@H]3CC[C@]12C	Not Active	3.1	–	–	–
C/C=C1/[C@H](O[C@@H]2O[C@H](CO)[C@@H](O)[C@H](O)[C@H]2O)OC=C(C(=O)OC)[C@H]1CC(=O)OCCc1ccc(O)c(O)c1 [OLEUROPEIN]	Not Active	–	Not Active	–	–
CCOC(=O)CC[C@@H](C)[C@H]1CC[C@H]2[C@@H]3CC[C@@H]4C[C@H](OC(=O)CCCCCC(=O)O)CC[C@]4(C)[C@H]3CC[C@]12C	–	–	Not Active	> 15	–
COC(=O)CC[C@@H](C)[C@H]1CC[C@H]2[C@@H]3CC[C@@H]4C[C@@H](N)CC[C@]4(C)[C@H]3CC[C@]12C	Not Active	5.7	–	–	–
COC(=O)CC[C@@H](C)[C@H]1CC[C@H]2[C@@H]3CC[C@@H]4C[C@H](NC(=O)CCCCCC(=O)O)CC[C@]4(C)[C@H]3CC[C@]12C	–	–	Not Active	4.3	fold change (FC) (Homo sapiens [3]): 2
COC(=O)CC[C@@H](C)[C@H]1CC[C@H]2[C@@H]3CC[C@@H]4C[C@@H](NC(=O)CCCCCC(=O)O)CC[C@]4(C)[C@H]3CC[C@]12C	Not Active	2.6	–	–	–
COC(=O)CC[C@@H](C)[C@H]1CC[C@H]2[C@@H]3CC[C@@H]4C[C@H](N)CC[C@]4(C)[C@H]3CC[C@]12C	–	–	Not Active	6.7	–
C[C@H](CCC(=O)O)[C@H]1CC[C@H]2[C@@H]3CC[C@@H]4C[C@H](OC(=O)CCCCCC(=O)O)CC[C@]4(C)[C@H]3CC[C@]12C	–	–	Not Active	> 15	–
C[C@H](CCC(=O)O)[C@H]1CC[C@H]2[C@@H]3CC[C@@H]4C[C@H](O)CC[C@]4(C)[C@H]3CC[C@]12C [LITHOCHOLIC ACID]	Not Active	> 10	–	–	–
COC(=O)CC[C@@H](C)[C@H]1CC[C@H]2[C@@H]3CC[C@@H]4C[C@H](OC(=O)CCCCCC(=O)O)CC[C@]4(C)[C@H]3CC[C@]12C	–	–	Not Active	7.8	EC50 [4]: 11 µM; Activity (Homo sapiens [5]): Active; EC50 [6]: 8.6 µM; Activity (Homo sapiens [7]): Active; Activity (Homo sapiens [8]): 50%; Activity (Homo sapiens [9]): Dose-dependent effect
CNC(=O)CC[C@@H](C)[C@H]1CC[C@H]2[C@@H]3CC[C@@H]4C[C@H](OC(=O)CCCCCC(=O)O)CC[C@]4(C)[C@H]3CC[C@]12C	Not Active	–	Not Active	–	–

From ChEMBL document CHEMBL2157990 (ACS Med Chem Lett, 2012)
